According to US20040116499A1, “Indole derivatives having an inhibitory effect on protein kinases” (priority 2001, published 2004):

System: protein kinase C
Test: Inhibition of the protein kinase C activity in vitro (protein kinase C assay kit, Calbiochem)
Type: biochemical
Details: both isomers as well as the racemate; test not specified at the place
Procedure: For testing the inhibitory effect on protein kinase C a commercially available protein kinase C assay kit (e.g. Calbiochem, Cat. No. 538484) may be employed. For this purpose the phosphorylation of a pseudosubstrate is measured by means of a specific antibody. The substances to be investigated are employed as solution in dimethylsulfoxid. […] By means of this assay the effects on individual PKC isoforms and the inhibition thereof may be tested. The effective concentration may be then determined at a given ATP concentration.
According to this Calbiochem kit it is worked with a batch of 200 μl/well in the following manner: 13 μl of buffer solution, 26 μl of 1 mM ATP (pH 7.0), 13 μl of phosphatidyl serine (500 μg/ml), 13 μl of 20 mM CaCl2, 65 μl of H2O and 55 μl of H2O, respectively, and 10 μl of inhibitor solution in DMSO are mixed, wherein 108 μl are added to an uncoated well. 12 μl of PKC solution (protein content and activity respectively of 0.1 U/12 μl) are added thereto and 100 μl thereof are added to the coated microtiter plate. After incubation for 20 min at room temperature 100 μl stop solution is added. Then washing is done five times with washing solution. […] Thereafter there is again a treatment with 100 μl of stop solution, and then the measurement is done in the Elisa reader at 492 nm. […]

inhibitory effect: distinct inhibitory effect
Compound: O=C(O)C1Cc2c([nH]c3ccccc23)C2(N1)C(=O)C(c1c[nH]c3ccccc13)=C(c1c[nH]c3ccccc13)C2=O (stereo not shown) [Pityriarubine A]
